{"source": "patent US20230107642A1", "about": "(Erasca, Inc., priority 2020, published 2023)", "data": [{"target": "T1, K-Ras G12C (Homo sapiens, UniProt P01116, G12C)", "T1 construct": "This protein contained 188 amino acids in total, including an N-terminal 6-Histidine tag; made in house; host or cells: E. coli BL21", "assay": "CAF assay (% CAF; method in Example 7, not in this part)", "assay_type": "binding", "details": "10 uM, 60 min; Table 2a", "units": {"% CAF 10 uM @ 60 min": "%"}, "values": [{"smiles": "C=CC(=O)N1CCN(c2nc(=O)n3c4c(c(-c5ccc(F)cc5F)c(Cl)cc24)S(=O)(=O)CC3)[C@@H](C)C1", "note": "[Example 190, 7-((S)-4-acryloyl-2-methylpiperazin-1-yl)-9-chloro-10-(2,4-difluorophenyl)-2,3-dihydro-5H-[1,4]thiazino[2,3,4-ij]quinazolin-5-one 1,1-dioxide]", "% CAF 10 uM @ 60 min": 88.8}]}, {"target": "T1, K-Ras G12C", "assay": "CAF assay (% CAF; method in Example 7, not in this part)", "assay_type": "binding", "details": "10 uM, 1 h; Table 3", "units": {"% CAF @ 10 uM, 1h": "%"}, "values": [{"smiles": "C=CC(=O)N1CCN(c2nc(=O)n3c4c(c(-c5ccc(F)cc5F)c(Cl)cc24)SCC3)[C@@H](C)C1", "note": "[Example 179, (S)-7-((S)-4-acryloyl-2-methylpiperazin-1-yl)-9-chloro-10-(2,4-difluorophenyl)-2,3-dihydro-5H-[1,4]thiazino[2,3,4-ij]quinazolin-5-one]", "% CAF @ 10 uM, 1h": 96}, {"smiles": "C=CC(=O)N1CC2CCC1CN2c1nc(=O)n2c3c(c(-c4ccc(F)cc4F)c(Cl)cc13)SCC2", "note": "(stereo not shown) [Example 181, 7-(5-acryloyl-2,5-diazabicyclo[2.2.2]octan-2-yl)-9-chloro-10-(2,4-difluorophenyl)-2,3-dihydro-5H-[1,4]thiazino[2,3,4-ij]quinazolin-5-one]", "% CAF @ 10 uM, 1h": 28.7}, {"smiles": "C=CC(=O)N1C2COCC1CN(c1nc(=O)n3c4c(c(-c5ccc(F)cc5F)c(Cl)cc14)SCC3)C2", "note": "[Example 182, 7-(9-acryloyl-3-oxa-7,9-diazabicyclo[3.3.1]nonan-7-yl)-9-chloro-10-(2,4-difluorophenyl)-2,3-dihydro-5H-[1,4]thiazino[2,3,4-ij]quinazolin-5-one]", "% CAF @ 10 uM, 1h": 94.4}, {"smiles": "C=CC(=O)N1C[C@H](C)N(c2nc(=O)n3c4c(c(-c5ccc(F)cc5F)c(Cl)cc24)S(=O)(=O)CC3)C[C@H]1C", "note": "[Example 184, 7-((2S,5R)-4-acryloyl-2,5-dimethylpiperazin-1-yl)-9-chloro-10-(2,4-difluorophenyl)-2,3-dihydro-5H-[1,4]thiazino[2,3,4-ij]quinazolin-5-one 1,1-dioxide]", "% CAF @ 10 uM, 1h": 91.4}, {"smiles": "C=CC(=O)N1CCN(c2nc(=O)n3c4c(c(-c5ccc(F)cc5F)c(Cl)cc24)SCC3)[C@@H](CS(C)(=O)=O)C1", "note": "[Example 185, 7-((R)-4-acryloyl-2-((methylsulfonyl)methyl)piperazin-1-yl)-9-chloro-10-(2,4-difluorophenyl)-2,3-dihydro-5H-[1,4]thiazino[2,3,4-ij]quinazolin-5-one]", "% CAF @ 10 uM, 1h": 93.3}, {"smiles": "C=CC(=O)N1CCN(c2nc(=O)n3c4c(c(-c5ccc(F)cc5F)c(Cl)cc24)SCC3)C[C@@H]1CS(C)(=O)=O", "note": "[Example 186, 7-((R)-4-acryloyl-3-((methylsulfonyl)methyl)piperazin-1-yl)-9-chloro-10-(2,4-difluorophenyl)-2,3-dihydro-5H-[1,4]thiazino[2,3,4-ij]quinazolin-5-one]", "% CAF @ 10 uM, 1h": 92.6}, {"smiles": "C=CC(=O)N1CCN(c2nc(=O)n3c4c(c(-c5ccc(F)cc5F)c(Cl)cc24)SCC3)C[C@H]1CS(C)(=O)=O", "note": "[Example 187, 7-((S)-4-acryloyl-3-((methylsulfonyl)methyl)piperazin-1-yl)-9-chloro-10-(2,4-difluorophenyl)-2,3-dihydro-5H-[1,4]thiazino[2,3,4-ij]quinazolin-5-one]", "% CAF @ 10 uM, 1h": 83.7}, {"smiles": "C=CC(=O)N1CCN(c2nc(=O)n3c4c(c(-c5ccc(F)cc5F)c(Cl)cc24)SCC3)[C@H](CS(C)(=O)=O)C1", "note": "[Example 188, 7-((S)-4-acryloyl-2-((methylsulfonyl)methyl)piperazin-1-yl)-9-chloro-10-(2,4-difluorophenyl)-2,3-dihydro-5H-[1,4]thiazino[2,3,4-ij]quinazolin-5-one]", "% CAF @ 10 uM, 1h": 89.2}, {"smiles": "C=CC(=O)N1C[C@H](C)N(c2nc(=O)n3c4c(c(-c5ccc(F)cc5F)c(Cl)cc24)SCC3)C[C@H]1C", "note": "[Example 189, 7-((2S,5R)-4-acryloyl-2,5-dimethylpiperazin-1-yl)-9-chloro-10-(2,4-difluorophenyl)-2,3-dihydro-5H-[1,4]thiazino[2,3,4-ij]quinazolin-5-one]", "% CAF @ 10 uM, 1h": 93.8}, {"smiles": "C=CC(=O)N1CCN(c2nc(=O)n3c4c(c(-c5ccc(F)cc5F)c(Cl)cc24)S(=O)(=O)CC3)[C@@H](C)C1", "note": "[Example 190, 7-((S)-4-acryloyl-2-methylpiperazin-1-yl)-9-chloro-10-(2,4-difluorophenyl)-2,3-dihydro-5H-[1,4]thiazino[2,3,4-ij]quinazolin-5-one 1,1-dioxide]", "% CAF @ 10 uM, 1h": 88.2}, {"smiles": "C=CC(=O)N1CCN(c2nc(=O)n3c4c(c(-c5ccc(F)cc5F)c(Cl)cc24)[S@@+]([O-])CC3)[C@@H](C)C1", "note": "[Example 191, 7-((S)-4-acryloyl-2-methylpiperazin-1-yl)-9-chloro-10-(2,4-difluorophenyl)-2,3-dihydro-5H-[1,4]thiazino[2,3,4-ij]quinazolin-5-one 1-oxide]", "% CAF @ 10 uM, 1h": 26.6}, {"smiles": "C=CC(=O)N1CCN(c2nc(=O)n3c4c(c(-c5ccc(F)cc5F)c(Cl)cc24)[S@+]([O-])CC3)[C@@H](C)C1", "note": "[Example 192, 7-((S)-4-acryloyl-2-methylpiperazin-1-yl)-9-chloro-10-(2,4-difluorophenyl)-2,3-dihydro-5H-[1,4]thiazino[2,3,4-ij]quinazolin-5-one 1-oxide]", "% CAF @ 10 uM, 1h": 62.4}, {"smiles": "C=CC(=O)N1CCN(c2nc(=O)n3c4c(c(-c5ccc(F)cc5F)c(Cl)cc24)SCC3)[C@@H](C)C1", "note": "[Example 193, 7-((S)-4-acryloyl-2-methylpiperazin-1-yl)-9-chloro-10-(2,4-difluorophenyl)-2,3-dihydro-5H-[1,4]thiazino[2,3,4-ij]quinazolin-5-one]", "% CAF @ 10 uM, 1h": 97}]}, {"target": "T1, K-Ras G12C", "assay": "CAF assay (% CAF; method in Example 7, not in this part)", "assay_type": "binding", "details": "10 μM, 1 h; Table 4", "units": {"% CAF @ 10 μM, 1 h": "%"}, "values": [{"smiles": "C=CC(=O)N1C2CC(=O)CC1CN(c1nc(=O)n3c4c(c(-c5ccc(F)cc5F)c(C(F)(F)F)cc14)OCCC3)C2", "note": "[Example 338, 8-(9-acryloyl-7-oxo-3,9-diazabicyclo[3.3.1]nonan-3-yl)-11-(2,4-difluorophenyl)-10-(trifluoromethyl)-3,4-dihydro-2H,6H-[1,4]oxazepino[2,3,4-ij]quinazolin-6-one]", "% CAF @ 10 μM, 1 h": 95.3}, {"smiles": "C=CC(=O)N1CCN(c2nc(=O)n3c4c(c(-c5c(F)cc(F)cc5F)c(Cl)cc24)SC[C@H]3CCCN2C[C@@H]3C[C@H]2CO3)[C@@H](C)C1", "note": "[Example 339, (R)-3-(3-((1S,4S)-2-oxa-5-azabicyclo[2.2.1]heptan-5-yl)propyl)-7-((S)-4-acryloyl-2-methylpiperazin-1-yl)-9-chloro-10-(2,4,6-trifluorophenyl)-2H-[1,4]thiazino[2,3,4-ij]quinazolin-5(3H)-one]", "% CAF @ 10 μM, 1 h": 96.6}, {"smiles": "C=CC(=O)N1CCN(c2nc(=O)n3c4c(c(-c5c(F)cc(F)cc5F)c(Cl)cc24)SC[C@@H]3CCCN2C[C@@H]3C[C@H]2CO3)[C@@H](C)C1", "note": "[Example 340, (S)-3-(3-((1S,4S)-2-oxa-5-azabicyclo[2.2.1]heptan-5-yl)propyl)-7-((S)-4-acryloyl-2-methylpiperazin-1-yl)-9-chloro-10-(2,4,6-trifluorophenyl)-2H-[1,4]thiazino[2,3,4-ij]quinazolin-5(3H)-one]", "% CAF @ 10 μM, 1 h": 96.9}, {"smiles": "C=CC(=O)N1CCN(c2nc(=O)n3c4c(c(-c5ccc(F)cc5F)c(Cl)cc24)SC[C@H]3CCCN2C[C@@H]3C[C@H]2CO3)[C@@H](C)C1", "note": "[Example 341, (3R)-3-(3-((1S,4S)-2-oxa-5-azabicyclo[2.2.1]heptan-5-yl)propyl)-7-((S)-4-acryloyl-2-methylpiperazin-1-yl)-9-chloro-10-(2,4-difluorophenyl)-2H-[1,4]thiazino[2,3,4-ij]quinazolin-5(3H)-one]", "% CAF @ 10 μM, 1 h": 96.5}, {"smiles": "C=CC(=O)N1CCN(c2nc(=O)n3c4c(c(-c5ccc(F)cc5F)c(Cl)cc24)SC[C@@H]3CCCN2C[C@@H]3C[C@H]2CO3)[C@@H](C)C1", "note": "[Example 342, (3S)-3-(3-((1S,4S)-2-oxa-5-azabicyclo[2.2.1]heptan-5-yl)propyl)-7-((S)-4-acryloyl-2-methylpiperazin-1-yl)-9-chloro-10-(2,4-difluorophenyl)-2H-[1,4]thiazino[2,3,4-ij]quinazolin-5(3H)-one]", "% CAF @ 10 μM, 1 h": 94.7}, {"smiles": "C=CC(=O)N1CCN(c2nc(=O)n3c4c(c(-c5c(F)cc(F)cc5F)c(Cl)cc24)SC[C@@H]3CC2CCN(C)CC2)[C@@H](C)C1", "note": "[Example 343, (S)-7-((S)-4-acryloyl-2-methylpiperazin-1-yl)-9-chloro-3-((1-methylpiperidin-4-yl)methyl)-10-(2,4,6-trifluorophenyl)-2H-[1,4]thiazino[2,3,4-ij]quinazolin-5(3H)-one]", "% CAF @ 10 μM, 1 h": 96.7}, {"smiles": "C=CC(=O)N1CCN(c2nc(=O)n3c4c(c(-c5c(F)cc(F)cc5F)c(Cl)cc24)SC[C@H]3CC2CCN(C)CC2)[C@@H](C)C1", "note": "[Example 344, (R)-7-((S)-4-acryloyl-2-methylpiperazin-1-yl)-9-chloro-3-((1-methylpiperidin-4-yl)methyl)-10-(2,4,6-trifluorophenyl)-2H-[1,4]thiazino[2,3,4-ij]quinazolin-5(3H)-one]", "% CAF @ 10 μM, 1 h": 94.8}, {"smiles": "C=CC(=O)N1CCN(c2nc(=O)n3c4c(c(-c5ccc(F)cc5F)c(Cl)cc24)SC[C@H]3CC2CCN(C)CC2)[C@@H](C)C1", "note": "[Example 345, (3R)-7-((S)-4-acryloyl-2-methylpiperazin-1-yl)-9-chloro-10-(2,4-difluorophenyl)-3-((1-methylpiperidin-4-yl)methyl)-2H-[1,4]thiazino[2,3,4-ij]quinazolin-5(3H)-one]", "% CAF @ 10 μM, 1 h": 82.4}, {"smiles": "C=CC(=O)N1CCN(c2nc(=O)n3c4c(c(-c5ccc(F)cc5F)c(Cl)cc24)SC[C@H]3CN2CCN(CC)CC2)[C@@H](C)C1", "note": "[Example 346, (3R)-7-((S)-4-acryloyl-2-methylpiperazin-1-yl)-9-chloro-10-(2,4-difluorophenyl)-3-((4-ethylpiperazin-1-yl)methyl)-2H-[1,4]thiazino[2,3,4-ij]quinazolin-5(3H)-one]", "% CAF @ 10 μM, 1 h": 79.3}, {"smiles": "C=CC(=O)N1CCN(c2nc(=O)n3c4c(c(-c5ccc(F)cc5F)c(Cl)cc24)SC[C@H]3CN2CCN(CC(F)F)CC2)[C@@H](C)C1", "note": "[Example 347, (3R)-7-((S)-4-acryloyl-2-methylpiperazin-1-yl)-9-chloro-3-((4-(2,2-difluoroethyl)piperazin-1-yl)methyl)-10-(2,4-difluorophenyl)-2H-[1,4]thiazino[2,3,4-ij]quinazolin-5(3H)-one]", "% CAF @ 10 μM, 1 h": 82.5}, {"smiles": "C=CC(=O)N1CCN(c2nc(=O)n3c4c(c(-c5ccc(F)cc5F)c(Cl)cc24)SC[C@H]3CC2CCN(CC(F)F)CC2)[C@@H](C)C1", "note": "[Example 348, (3R)-7-((S)-4-acryloyl-2-methylpiperazin-1-yl)-9-chloro-3-((1-(2,2-difluoroethyl)piperidin-4-yl)methyl)-10-(2,4-difluorophenyl)-2H-[1,4]thiazino[2,3,4-ij]quinazolin-5(3H)-one]", "% CAF @ 10 μM, 1 h": 92}]}]}
